Test results: US20210101874A1, “MICROBIOCIDAL OXADIAZOLE DERIVATIVES” (SYNGENTA PARTICIPATIONS AG, priority 2017, published 2021)

Tests used:
[1] = test system: Puccinia recondita f. sp. Tritici; assay: Puccinia recondita f. sp. tritici / wheat / leaf disc preventative (brown rust); type: in vivo; settings: foliar, 200 ppm in the applied formulation, wheat leaf segments cv. Kanzler, inoculated 1 day after application, compared to untreated, assessed 7 to 9 days after application, read-out: disease control
Method in brief: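 Single evaluation 7–9 d after spraying: % disease control compared with untreated leaf segments. Protocol: cv. Kanzler segments, preventative spray at 200 ppm, spore inoculation at day 1, 19° C., 75% rh, 12 h light/12 h dark.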

[2] = test system: Puccinia recondita f. sp. Tritici; assay: Puccinia recondita f. sp. tritici / wheat / leaf disc curative (brown rust); type: in vivo; settings: foliar, 200 ppm in the applied formulation, wheat leaf segments cv. Kanzler, applied 1 day after inoculation, compared to untreated, assessed 6 to 8 days after application, read-out: disease control
Method: Leaf disks or leaf segments of various plant species are cut from plants grown in a greenhouse. The cut leaf disks or segments are placed in multiwell plates (24-well format) onto water agar. The leaf disks are sprayed with a test solution before (preventative) or after (curative) inoculation. Compounds to be tested are prepared as DMSO solutions (max. 10 mg/ml) which are diluted to the appropriate concentration with 0.025% Tween20 just before spraying. The inoculated leaf disks or segments are incubated under defined conditions (temperature, relative humidity, light, etc.) according to the respective test system. A single evaluation of disease level is carried out 3 to 14 days after inoculation, depending on the pathosystem. Percent disease control relative to the untreated check leaf disks or segments is then calculated.
Wheat leaf segments cv. Kanzler are placed on agar in multiwell plates (24-well format). The leaf segments are then inoculated with a spore suspension of the fungus. Plates were stored in darkness at 19° C. and 75% relative humidity. The formulated test compound diluted in water was applied 1 day after inoculation. The leaf segments were incubated at 19° C. and 75% relative humidity under a light regime of 12 hours light/12 hours darkness in a climate cabinet and the activity of a compound was assessed as percent disease control compared to untreated when an appropriate level of disease damage appears in untreated check leaf segments (6 to 8 days after application).
The following compounds at 200 ppm in the applied formulation give at least 80% disease control in this test when compared to untreated control leaf disks under the same conditions, which show extensive disease development.

[3] = test system: Glomerella lagenarium (Colletotrichum lagenarium); assay: Glomerella lagenarium (Colletotrichum lagenarium) liquid culture / cucumber / preventative (anthracnose); type: cell-based; settings: Colletotrichum orbiculare; 20 ppm in the applied formulation; conidia in PDB nutrient broth, 24° C.; 3 to 4 days after application; compared to untreated; read-out: disease control (inhibition of growth measured photometrically)
Method in brief: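 Test compound, diluted from DMSO, was mixed in microtiter wells with fungal conidia taken from cryogenic storage and suspended in PDB nutrient broth. After 3 to 4 days at 24 °C, photometric growth measurement gave antifungal activity as a percentage of the untreated control.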

C/C=C/S(=O)(=O)N(Cc1ccc(-c2noc(C(F)(F)F)n2)cc1)C(C)C [Compound 1.84, (E)-N-isopropyl-N-[[4-[5-(trifluoromethyl)-1,2,4-oxadiazol-3-yl]phenyl]methyl] prop-1-ene-1-sulfonamide]
≥ 80%: pest or weed control at 200 ppm [1] | pest or weed control at 200 ppm [2] | inhibition at 20 ppm [3]

COC(=O)CS(=O)(=O)N(Cc1ccc(-c2noc(C(F)(F)F)n2)cc1)C(C)C [Compound 1.85, methyl 2-[isopropyl-[[4-[5-(trifluoromethyl)-1,2,4-oxadiazol-3-yl]phenyl]methyl]sulfamoyl]acetate]
≥ 80%: pest or weed control at 200 ppm [1] | pest or weed control at 200 ppm [2] | inhibition at 20 ppm [3]

CC(C)N(Cc1ccc(-c2noc(C(F)(F)F)n2)cc1)S(C)(=O)=O [Compound 1.86, N-isopropyl-N-[[4-[5-(trifluoromethyl)-1,2,4-oxadiazol-3-yl]phenyl]methyl] methanesulfonamide]
≥ 80%: pest or weed control at 200 ppm [1] | pest or weed control at 200 ppm [2] | inhibition at 20 ppm [3]

CNS(=O)(=O)N(Cc1ccc(-c2noc(C(F)(F)F)n2)cc1)C(C)C [Compound 1.87, 3-[4-[[isopropyl (methylsulfamoyl)amino]methyl]phenyl]-5-(trifluoromethyl)-1,2,4-oxadiazole]
≥ 80%: pest or weed control at 200 ppm [1] | pest or weed control at 200 ppm [2] | inhibition at 20 ppm [3]

CC(C)N(Cc1ccc(-c2noc(C(F)(F)F)n2)cc1)S(=O)(=O)C1CC1 [Compound 1.98, N-isopropyl-N-[[4-[5-(trifluoromethyl)-1,2,4-oxadiazol-3-yl]phenyl]methyl] cyclopropanesulfonamide]
≥ 80%: pest or weed control at 200 ppm [1] | pest or weed control at 200 ppm [2] | inhibition at 20 ppm [3]

CC(C)N(Cc1ccc(-c2noc(C(F)(F)F)n2)cc1)S(=O)(=O)N(C)C [Compound 1.100, N-(dimethylsulfamoyl)-N-[[4-[5-(trifluoromethyl)-1,2,4-oxadiazol-3-yl]phenyl]methyl] propan-2-amine]
≥ 80%: pest or weed control at 200 ppm [1] | pest or weed control at 200 ppm [2] | inhibition at 20 ppm [3]

CCN(Cc1ccc(-c2noc(C(F)(F)F)n2)cc1F)S(=O)(=O)N(C)C [Compound 1.105, N-(dimethylsulfamoyl)-N-[[2-fluoro-4-[5-(trifluoromethyl)-1,2,4-oxadiazol-3-yl]phenyl]methyl] ethanamine]
≥ 80%: pest or weed control at 200 ppm [1] | pest or weed control at 200 ppm [2] | inhibition at 20 ppm [3]

CCN(Cc1ccc(-c2noc(C(F)(F)F)n2)c(F)c1)S(=O)(=O)N(C)C [Compound 1.106, N-(dimethylsulfamoyl)-N-[[3-fluoro-4-[5-(trifluoromethyl)-1,2,4-oxadiazol-3-yl]phenyl]methyl] ethanamine]
≥ 80%: pest or weed control at 200 ppm [1] | pest or weed control at 200 ppm [2] | inhibition at 20 ppm [3]

CCN(Cc1ccc(-c2noc(C(F)(F)F)n2)c(F)c1F)S(=O)(=O)N(C)C [Compound 1.107, N-[[2,3-difluoro-4-[5-(trifluoromethyl)-1,2,4-oxadiazol-3-yl]phenyl]methyl]-N-(dimethylsulfamoyl) ethanamine]
≥ 80%: pest or weed control at 200 ppm [1] | pest or weed control at 200 ppm [2] | inhibition at 20 ppm [3]

CCCS(=O)(=O)NCc1ccc(-c2noc(C(F)(F)F)n2)cc1 [Compound 2.4, N-[[4-[5-(trifluoromethyl)-1,2,4-oxadiazol-3-yl]phenyl]methyl] propane-1-sulfonamide]
≥ 80%: pest or weed control at 200 ppm [1] | pest or weed control at 200 ppm [2] | inhibition at 20 ppm [3]

CCCS(=O)(=O)NCc1ccc(-c2noc(C(F)(F)F)n2)c(F)c1 [Compound 2.5, N-[[3-fluoro-4-[5-(trifluoromethyl)-1,2,4-oxadiazol-3-yl]phenyl]methyl] propane-1-sulfonamide]
≥ 80%: pest or weed control at 200 ppm [1] | pest or weed control at 200 ppm [2] | inhibition at 20 ppm [3]

CCCS(=O)(=O)NCc1ccc(-c2noc(C(F)(F)F)n2)cc1F [Compound 2.6, N-[[2-fluoro-4-[5-(trifluoromethyl)-1,2,4-oxadiazol-3-yl]phenyl]methyl] propane-1-sulfonamide]
≥ 80%: pest or weed control at 200 ppm [1] | pest or weed control at 200 ppm [2] | inhibition at 20 ppm [3]

C=CCS(=O)(=O)NCc1ccc(-c2noc(C(F)(F)F)n2)cc1 [Compound 2.7, N-[[4-[5-(trifluoromethyl)-1,2,4-oxadiazol-3-yl]phenyl]methyl] prop-2-ene-1-sulfonamide]
≥ 80%: pest or weed control at 200 ppm [1] | pest or weed control at 200 ppm [2] | inhibition at 20 ppm [3]

COC(=O)CCS(=O)(=O)NCc1ccc(-c2noc(C(F)(F)F)n2)cc1 [Compound 2.8, methyl 3-[[4-[5-(trifluoromethyl)-1,2,4-oxadiazol-3-yl]phenyl]methyl-sulfamoyl] propanoate]
≥ 80%: pest or weed control at 200 ppm [1] | pest or weed control at 200 ppm [2] | inhibition at 20 ppm [3]

CS(=O)(=O)NCc1ccc(-c2noc(C(F)(F)F)n2)cc1 [Compound 2.13, N-[[4-[5-(trifluoromethyl)-1,2,4-oxadiazol-3-yl]phenyl]methyl] methanesulfon-amide]
≥ 80%: pest or weed control at 200 ppm [1] | pest or weed control at 200 ppm [2] | inhibition at 20 ppm [3]

CNS(=O)(=O)NCc1ccc(-c2noc(C(F)(F)F)n2)cc1 [Compound 2.14, N-(methylsulfamoyl)-1-[4-[5-(trifluoromethyl)-1,2,4-oxadiazol-3-yl]phenyl] methanamine]
≥ 80%: pest or weed control at 200 ppm [1] | pest or weed control at 200 ppm [2] | inhibition at 20 ppm [3]

C=CCS(=O)(=O)NCc1ccc(-c2noc(C(F)(F)F)n2)c(F)c1 [Compound 2.15, N-[[3-fluoro-4-[5-(trifluoromethyl)-1,2,4-oxadiazol-3-yl]phenyl]methyl] prop-2-ene-1-sulfonamide]
≥ 80%: pest or weed control at 200 ppm [1] | pest or weed control at 200 ppm [2] | inhibition at 20 ppm [3]

COC(=O)CCS(=O)(=O)NCc1ccc(-c2noc(C(F)(F)F)n2)c(F)c1 [Compound 2.16, methyl 3-[[3-fluoro-4-[5-(trifluoromethyl)-1,2,4-oxadiazol-3-yl]phenyl]methyl-sulfamoyl] propanoate]
≥ 80%: pest or weed control at 200 ppm [1] | pest or weed control at 200 ppm [2] | inhibition at 20 ppm [3]

COCCS(=O)(=O)NCc1ccc(-c2noc(C(F)(F)F)n2)c(F)c1 [Compound 2.17, N-[[3-fluoro-4-[5-(trifluoromethyl)-1,2,4-oxadiazol-3-yl]phenyl]methyl]-2-methoxy-ethanesulfon-amide]
≥ 80%: pest or weed control at 200 ppm [1] | pest or weed control at 200 ppm [2] | inhibition at 20 ppm [3]

C/C=C/S(=O)(=O)NCc1ccc(-c2noc(C(F)(F)F)n2)c(F)c1 [Compound 2.19, (E)-N-[[3-fluoro-4-[5-(trifluoromethyl)-1,2,4-oxadiazol-3-yl]phenyl]methyl] prop-1-ene-1-sulfonamide]
≥ 80%: pest or weed control at 200 ppm [1] | pest or weed control at 200 ppm [2] | inhibition at 20 ppm [3]

CCS(=O)(=O)NCc1ccc(-c2noc(C(F)(F)F)n2)c(F)c1 [Compound 2.24, N-[[3-fluoro-4-[5-(trifluoromethyl)-1,2,4-oxadiazol-3-yl]phenyl]methyl] ethanesulfon-amide]
≥ 80%: pest or weed control at 200 ppm [1] | pest or weed control at 200 ppm [2] | inhibition at 20 ppm [3]

CCS(=O)(=O)NCc1ccc(-c2noc(C(F)(F)F)n2)cc1F [Compound 2.25, N-[[2-fluoro-4-[5-(trifluoromethyl)-1,2,4-oxadiazol-3-yl]phenyl]methyl] ethanesulfon-amide]
≥ 80%: pest or weed control at 200 ppm [1] | pest or weed control at 200 ppm [2] | inhibition at 20 ppm [3]

CS(=O)(=O)NCc1ccc(-c2noc(C(F)(F)F)n2)c(F)c1 [Compound 2.26, N-[[3-fluoro-4-[5-(trifluoromethyl)-1,2,4-oxadiazol-3-yl]phenyl]methyl] methanesulfon-amide]
≥ 80%: pest or weed control at 200 ppm [1] | pest or weed control at 200 ppm [2] | inhibition at 20 ppm [3]

CS(=O)(=O)NCc1ccc(-c2noc(C(F)(F)F)n2)cc1F [Compound 2.27, N-[[2-fluoro-4-[5-(trifluoromethyl)-1,2,4-oxadiazol-3-yl]phenyl]methyl] methanesulfon-amide]
≥ 80%: pest or weed control at 200 ppm [1] | pest or weed control at 200 ppm [2] | inhibition at 20 ppm [3]
